Regarding `CC(=O)N(c1onc(C)c1C)S(=O)(=O)c1ccc(N)cc1`, the melting point (usually the temperature, or range, at which the solid turns liquid) stood at 194 °C.

In the case of `Cl/C(=C\c1ccccc1)c1cccc2ccccc12`, the melting point was 117 °C.

With `CC(=O)Nc1ccc(C(C)=O)c(O)c1`, the melting point is 143 to 145 °C.

Regarding `CN(C)CCC=C1c2ccccc2COc2ccc(CC(=O)O)cc21`, the melting point came to 248 °C.

In turn, `NCCCCC(=O)O` returned a melting point of 158 to 161 °C.

Compound `Cc1cc([N+](=O)[O-])ccc1N=C=S` showed a melting point of 82 to 84 °C.

`COc1ccc(CNC(=O)c2cc([N+](=O)[O-])cc([N+](=O)[O-])c2)cc1`: the melting point was found to be 151 °C.

The compound `O=[N+]([O-])c1ccc(S)cc1` registered a melting point of 74 to 77 °C.

Regarding `CCNc1nc2c(cc1C(=O)OCC)c(=O)oc1ccccc12`, the melting point is 186 °C.

The compound `Cc1cc(Cl)ccc1N` gave a melting point of 30.3 °C.

`NC(=O)CC[C@H](NC(=O)OCc1ccccc1)C(=O)O` yielded a melting point of 135 to 137 °C.

Compound `CN1CCOc2cc(C=O)ccc21` yielded a melting point of 70 to 71 °C.

Compound `COC(=O)C(F)(F)C(F)(F)C(F)(F)F` showed a melting point of -86 °C.

The compound `COc1ccccc1-n1ncc2c(=O)[nH]cnc21` yielded a melting point of 270 to 271 °C.

For `O=C(O)CCn1cncn1`, the melting point was in the range of 177 to 179 °C.

Regarding `O=c1nc2ccccc2nc(C(F)(F)F)c1NNc1cccnc1`, the melting point is 157 °C.

In the case of `CCCCCCCCCCCCCCCCCCCCCCCCCCCCCCCCCCC`, the melting point is 75 °C.

The compound `O=C(N[C@@H](Cc1ccc(Br)cc1)C(=O)O)OCC1c2ccccc2-c2ccccc21` registered a melting point of 152 °C.

Consider `O=C1NC(=S)NC(=O)C1=NNc1ccccc1`, for which the melting point was 290 °C.

In turn, `N#C/C(=N\Nc1ccc(Cl)cc1Cl)c1nc(-c2ccc(Cl)cc2)cs1` yielded a melting point of 246 °C.

`CN1CCCN(CC#N)CCN(CC#N)CCCN(CC#N)CC1` displayed a melting point of 88 °C.

In turn, `Oc1c(F)ccc(F)c1F` showed a melting point of 33.5 °C.

With `CC(=O)OC1CCC2(C)C(CC(=O)C3C2CC(OC(C)=O)C2(C)C(C(C)CCC(=O)O)CCC32)C1` (stereo unspecified), the melting point lay in the range of 105 to 107 °C.

For `O=c1[nH]c2ccc(Cl)cc2o1`, the melting point was 192 to 193 °C.

The compound `CC(C)C[C@H]1OC[C@@H](C)CO1` yielded a melting point of less than -21 °C.

`CCCCCCCOC(=O)CCC` displayed a melting point of -57.5 °C.

The compound `c1ccc(Cc2ccc3ccccc3c2)cc1` registered a melting point of 58 °C.

The compound `O=C1CN2CCOC2(c2ccccc2Cl)c2cc(Cl)ccc2N1` (stereo unspecified) displayed a melting point of 203 °C.

`CC(C)N=c1cc2n(-c3ccc(Cl)cc3)c3ccccc3nc-2cc1Nc1ccc(Cl)cc1`: the melting point turned out to be 211 °C.

Take `Cc1c(NC(C)C)c(=O)n(-c2ccccc2)n1C`: the melting point was 80 °C.

Regarding `c1ccc(COc2cccc3[nH]ccc23)cc1`, the melting point was determined as 60 °C.

The compound `COC(=O)CCCCCCCCC(=O)OC` displayed a melting point of 38 °C.

In turn, `O=[N+]([O-])c1coc2ccc(O)cc12` gave a melting point of 164 to 165 °C.

As to `O=C1SC(Cl)(Cl)c2nc3c(cc21)C(=O)SC3(Cl)Cl`, the melting point was in the range of 178 to 185 °C.

For `O=C(OCc1ccccc1)c1cnc(Cl)nc1C(F)(F)F`, the melting point lay within 45 to 47 °C.

In turn, `Cc1oc(-c2ccccc2)nc1C=O` displayed a melting point of 87 to 88 °C.

In turn, `CC(=O)N(Nc1ccccc1)c1ccc(-c2ccc(N(Nc3ccccc3)C(C)=O)cc2)cc1` showed a melting point of 235 °C.

As for `Nc1nsc(SCc2ccccc2)n1`, the melting point fell in the range of 120 to 121 °C.

`O=C(O)CC(=O)O` showed a melting point of 136 °C.

In the case of `CCOC(=O)C(C)O` (stereo unspecified), the melting point was -26 °C.

In the case of `CCCCCCCCCCCCCCCC(=O)OCCCC`, the melting point came out at 16.9 °C.

Consider `CO[C@@H](C)[C@H](N)C(=O)O`, for which the melting point was in the range of 220 to 224 °C.

`Cc1nccn1-c1ccc(C#N)cc1` gave a melting point of 138 to 141 °C.

On to `C=C1CC23CC1(O)CCC2C12C=CC(O)C(C)(C(=O)O1)C2C3C(=O)O` (stereo unspecified), for which the melting point was 227 °C.

For `O=C(O)C1(O)CC(O)C(O)C(O)C1` (stereo unspecified), the melting point was 166 to 168 °C.

`O=C(C(=S)Nc1ccccc1Cl)c1ccccc1`: the melting point came to 119 °C.

Consider `CC(=O)c1cc2cc(Cl)cc(Cl)c2oc1=O`, for which the melting point fell in the range of 172 to 174 °C.

The compound `O=C1Cc2cc(O)ccc2O1` displayed a melting point of 190 to 195 °C.

`C1=CC=CC=CC=C1` registered a melting point of -4.7 °C.

Consider `CSc1nc2ccccc2c(=O)n1C`, for which the melting point lay in the range of 65 to 67 °C.

In the case of `O=CC=Cc1ccccc1[N+](=O)[O-]`, the melting point fell in the range of 125 to 129 °C.

The compound `Cc1csc2ccc(Cl)cc12` registered a melting point of 35 °C.

`Brc1ccc(-c2ccno2)s1` displayed a melting point of 66 to 67 °C.

Take `COc1ccc(CCC(=O)O)cc1OC`: the melting point amounted to 98 °C.

For the compound `O=P1(NCCCl)OCCCN1CCCl` (stereo unspecified), the melting point amounted to 43.4 °C.

Take `CSc1ccc(Oc2ccc(C(F)(F)F)cc2[N+](=O)[O-])cc1`: the melting point fell in the range of 41 to 43 °C.

`C#Cc1cccnc1` displayed a melting point of 40 °C.

In turn, `COc1ccc(Cl)c(OC)c1C(N)=O` registered a melting point of 156 to 158 °C.

`CC(CCC(=O)O)C1CCC2C3C(O)CC4CC(O)CCC4(C)C3CC(=O)C12C` (stereo unspecified) displayed a melting point of 220 °C.

`O=C(O)c1ccc(-c2cccnc2)cc1` came in with a melting point of 271 to 274 °C.

Compound `COc1ccc(C(N)=O)cc1[N+](=O)[O-]` showed a melting point of 175 °C.

Take `Cc1cnc(N)c(C)n1`: the melting point was 96 °C.

In turn, `O=C(COC(=O)c1ccccc1)NC(CO)(CO)CO` yielded a melting point of 126 °C.

`CON(C)C(=O)Nc1ccc(Br)cc1` displayed a melting point of 95 °C.

In turn, `CC1=C(C(=O)OCC(C)C)C(c2ccc3c(c2)OCO3)NC(=O)N1` (stereo unspecified) came in with a melting point of 178 °C.

`Brc1ccc2ccc3cccc4ccc1c2c34` showed a melting point of 95 °C.

As to `CC(=O)CC(=O)O`, the melting point came to 36.5 °C.

As for `CSc1nsc(SC)c1C(N)=O`, the melting point is 214 to 216 °C.

In the case of `N#CC(c1ccc(Cl)cc1)N1CCOCC1` (stereo unspecified), the melting point lay in the range of 76 to 77 °C.

Compound `O=C(CI)OC(=O)CI` registered a melting point of 43 to 49 °C.

With `CCCCCCCCCCCCCC(=O)OC(C)C`, the melting point worked out at 3 °C.

Take `O=C(c1ccco1)c1noc(-c2ccc(Br)cc2)c1S(=O)(=O)c1ccccc1`: the melting point came to 133 °C.

Compound `O=S1(=O)OCC2C(CO1)C1(Cl)C(Cl)=C(Cl)C2(Cl)C1(Cl)Cl` (stereo unspecified) yielded a melting point of 182 °C.

Take `CCCCCCCCCCCC#N`: the melting point is 4 °C.

The compound `c1ccc(N2CCNCC2)cc1` yielded a melting point of 18.8 °C.

In turn, `CCCCCCCCCCCCl` yielded a melting point of -17 °C.

`Cc1cc(Br)c(O)c2c1CCC2` registered a melting point of 60 to 62 °C.

Regarding `Nc1ccc(Oc2ccc(N)cc2)cc1`, the melting point was 191 °C.

As for `CCOC(=O)C1(c2ccccc2)CCN(CCc2ccc(N)cc2)CC1`, the melting point was determined as 83 °C.

With `CC1CC(=O)c2c(F)c(F)cc3c(=O)c(C(=O)O)cn1c23` (stereo unspecified), the melting point fell in the range of 323 to 325 °C.

For the compound `O=c1[nH]ncc2ccccc12`, the melting point was found to be 188 °C.

The record behind these values is a melting point compilation (Tetko et al.).
